Source: ChEMBL document CHEMBL1159211, “Antifungal evaluation of pseudolaric acid B, a major constituent of Pseudolarix kaempferi” (J Nat Prod, 1995)
In brackets after ≈: the same amount, converted by molar mass.

What was measured:
Candida albicans [1] = assay: Antimicrobial activity against Candida albicans at 1 mg/mL by agar-well diffusion assay; assay type: functional; conditions: Candida albicans; read-out: IZ
Aspergillus fumigatus = assay: Antimicrobial activity against Aspergillus fumigatus at 1 mg/mL by agar-well diffusion assay; assay type: functional; conditions: Aspergillus fumigatus; read-out: IZ
[2] = system: Trichophyton mentagrophytes; assay: Antimicrobial activity against Trichophyton mentagrophytes at 1 mg/mL by agar-well diffusion assay; assay type: functional; conditions: Trichophyton mentagrophytes; read-out: IZ
Nannizzia gypsea = assay: Antimicrobial activity against Microsporum gypseum at 1 mg/mL by agar-well diffusion assay; assay type: functional; conditions: Nannizzia gypsea; read-out: IZ
[3] = system: Mycobacterium intracellulare; assay: Antimicrobial activity against Mycobacterium intracellular at 1 mg/mL by agar-well diffusion assay; assay type: functional; conditions: read-out: IZ
Candida albicans [4] = assay: Antifungal activity against Candida albicans B311 at 1 mg/mL by agar-well diffusion assay; assay type: functional; conditions: Candida albicans, B311; read-out: IZ
Candida albicans [5] = assay: Antifungal activity against Candida albicans ATCC 10231 at 1 mg/mL by agar-well diffusion assay; assay type: functional; conditions: Candida albicans, ATCC 10231; read-out: IZ
Starmerella magnoliae = assay: Antifungal activity against Candida magnoliae ATCC 12573 at 1 mg/mL by agar-well diffusion assay; assay type: functional; conditions: ATCC 12573; read-out: IZ
Candida parapsilosis [6] = assay: Antifungal activity against Candida parapsilosis ATCC 20224 at 1 mg/mL by agar-well diffusion assay; assay type: functional; conditions: Lodderomyces parapsilosis, ATCC 20224; read-out: IZ
Candida albicans [7] = assay: Antifungal activity against Candida stellatoidea SA-I at 1 mg/mL by agar-well diffusion assay; assay type: functional; conditions: Candida albicans; read-out: IZ
Candida tropicalis [8] = assay: Antifungal activity against Candida tropicalis ATCC 20326 at 1 mg/mL by agar-well diffusion assay; assay type: functional; conditions: Candida tropicalis, ATCC 20326; read-out: IZ
Candida tropicalis [9] = assay: Antifungal activity against Candida tropicalis ATCC 20021 at 1 mg/mL by agar-well diffusion assay; assay type: functional; conditions: Candida tropicalis, ATCC 20021; read-out: IZ
Candida tropicalis [10] = assay: Antifungal activity against Candida tropicalis LM 64 at 1 mg/mL by agar-well diffusion assay; assay type: functional; conditions: Candida tropicalis; read-out: IZ
Yarrowia deformans [11] = assay: Antifungal activity against Torulopsis petrophilum ATCC 20225 at 1 mg/mL by agar-well diffusion assay; assay type: functional; conditions: Yarrowia deformans, ATCC 20225; read-out: IZ
Torula [12] = assay: Antifungal activity against Torula cremoris NRRL 7495 at 1 mg/mL by agar-well diffusion assay; assay type: functional; conditions: Torula, NRRL 7495; read-out: IZ
Candida albicans [13] = assay: Antifungal activity against Candida albicans B311 by twofold serial broth dilution method; assay type: functional
Candida albicans [14] = assay: Antifungal activity against Candida albicans ATCC 10231 by twofold serial broth dilution method; assay type: functional
Candida parapsilosis [15] = assay: Antifungal activity against Candida parapsilosis ATCC 20224 by twofold serial broth dilution method; assay type: functional; conditions: Lodderomyces parapsilosis
Candida albicans [16] = assay: Antifungal activity against Candida stellatoidea SA-I by twofold serial broth dilution method; assay type: functional
Candida tropicalis [17] = assay: Antifungal activity against Candida tropicalis ATCC 20326 by twofold serial broth dilution method; assay type: functional
Candida tropicalis [18] = assay: Antifungal activity against Candida tropicalis ATCC 20021 by twofold serial broth dilution method; assay type: functional
Candida tropicalis [19] = assay: Antifungal activity against Candida tropicalis LM 64 by twofold serial broth dilution method; assay type: functional
Yarrowia deformans [20] = assay: Antifungal activity against Torulopsis petrophilum ATCC 20225 by twofold serial broth dilution method; assay type: functional
Torula [21] = assay: Antifungal activity against Torula cremoris NRRL 7495 by twofold serial broth dilution method; assay type: functional
[22] = Toxicity in iv dosed CD1 mouse; assay type: organism-based; conditions: in vivo
[23] = Toxicity in ip dosed CD1 mouse; assay type: organism-based; conditions: in vivo
Mus musculus [24] = assay: Toxicity in CD1 mouse assessed as unusual behavioral changes at 40 mg/kg, ip administered for 14 consecutive days measured daily for 4 weeks; assay type: organism-based; set-up: dose 40 mg/kg, route intraperitoneal; conditions: in vivo, 672 h
Mus musculus [25] = assay: Toxicity in CD1 mouse assessed as body weight at 40 mg/kg, ip after day 1; assay type: organism-based; set-up: dose 40 mg/kg, route intraperitoneal; conditions: in vivo
Mus musculus [26] = assay: Toxicity in CD1 mouse assessed as body weight at 40 mg/kg, ip administered for 14 consecutive days measured after day 14; assay type: organism-based; set-up: dose 40 mg/kg, route intraperitoneal; conditions: in vivo
Mus musculus [27] = assay: Toxicity in CD1 mouse assessed as body weight at 40 mg/kg, ip administered for 14 consecutive days measured after day 21; assay type: organism-based; set-up: dose 40 mg/kg, route intraperitoneal; conditions: in vivo
Candida albicans [28] = assay: Antifungal activity against Candida albicans NIH B311 infected in mouse assessed as reduction in number of recovered colony-forming units assessed per mg of kidney at 20 mg/kg, iv administered 18 and 42 hrs after infection measured 16 hrs after final injection by tenfold serial dilution method relative to control; assay type: functional; set-up: scale not given: the % may be the effect or the level left
Candida albicans [29] = assay: Antifungal activity against Candida albicans NIH B311 infected in mouse assessed as reduction in number of recovered colony-forming units assessed per mg of kidney at 10 mg/kg, iv administered 18 and 42 hrs after infection measured 16 hrs after final injection by tenfold serial dilution method relative to control; assay type: functional; set-up: scale not given: the % may be the effect or the level left
Candida albicans [30] = assay: Antifungal activity against Candida albicans NIH B311 infected in mouse assessed as reduction in number of recovered colony-forming units assessed per mg of kidney at 20 mg/kg, sc administered 7 and 24 hrs after infection measured 16 hrs after final injection by tenfold serial dilution method relative to control; assay type: functional; set-up: scale not given: the % may be the effect or the level left; conditions: route subcutaneous
Candida albicans [31] = assay: Antifungal activity against Candida albicans NIH B311 infected in mouse assessed as reduction in number of recovered colony-forming units assessed per mg of kidney at 10 mg/kg, sc administered 7 and 24 hrs after infection measured 16 hrs after final injection by tenfold serial dilution method relative to control; assay type: functional; set-up: scale not given: the % may be the effect or the level left; conditions: route subcutaneous
Candida albicans [32] = assay: Antifungal activity against Candida albicans NIH B311 infected in mouse assessed as reduction in number of recovered colony-forming units assessed per mg of kidney at 3 mg/kg, sc administered 7 and 24 hrs after infection measured 16 hrs after final injection by tenfold serial dilution method relative to control; assay type: functional; set-up: scale not given: the % may be the effect or the level left; conditions: route subcutaneous

Molecule `COC(=O)C1=CC[C@@]23CC[C@@H]([C@@](C)(/C=C/C=C(\C)C(=O)O)OC2=O)[C@@]3(OC(C)=O)CC1` [PSEUDOLARIC ACID B] has a zone of inhibition at 1000 µg/mL (Candida albicans [1]) of 7 mm, a zone of inhibition at 1000 µg/mL (Aspergillus fumigatus) of 3 mm and a zone of inhibition at 1000 µg/mL [2] of 7 mm. It also gave a zone of inhibition at 1000 µg/mL (Nannizzia gypsea) of 7 mm, a zone of inhibition at 1000 µg/mL [3] of 1 mm and a zone of inhibition at 1000 µg/mL (Candida albicans [4]) of 7 mm. The zone of inhibition at 1000 µg/mL (Candida albicans [5]) was 7 mm, the zone of inhibition at 1000 µg/mL (Starmerella magnoliae) was under 1 mm and the zone of inhibition at 1000 µg/mL (Candida parapsilosis [6]) was 7 mm. It also gave a zone of inhibition at 1000 µg/mL (Candida albicans [7]) of over 12 mm, a zone of inhibition at 1000 µg/mL (Candida tropicalis [8]) of 7 mm and a zone of inhibition at 1000 µg/mL (Candida tropicalis [9]) of 7 mm. For the same molecule, the zone of inhibition at 1000 µg/mL (Candida tropicalis [10]) was over 12 mm, the zone of inhibition at 1000 µg/mL (Yarrowia deformans [11]) was 7 mm and the zone of inhibition at 1000 µg/mL (Torula [12]) was 3 mm. It also gave an MFC (Candida albicans [13]) of 3.12 µg/mL (≈ 7.21 µM), an MIC (Candida albicans [13]) of 1.56 µg/mL (≈ 3.61 µM) and an MFC (Candida albicans [14]) of 3.12 µg/mL (≈ 7.21 µM). It also gave an MIC (Candida albicans [14]) of 1.56 µg/mL (≈ 3.61 µM), an MFC (Candida parapsilosis [15]) of 12.5 µg/mL (≈ 28.9 µM) and an MIC (Candida parapsilosis [15]) of 3.12 µg/mL (≈ 7.21 µM). The MFC (Candida albicans [16]) was 6.25 µg/mL (≈ 14.5 µM), the MIC (Candida albicans [16]) was 1.56 µg/mL (≈ 3.61 µM) and the MFC (Candida tropicalis [17]) was 3.12 µg/mL (≈ 7.21 µM). The MIC (Candida tropicalis [17]) was 1.56 µg/mL (≈ 3.61 µM), the MFC (Candida tropicalis [18]) was 3.12 µg/mL (≈ 7.21 µM) and the MIC (Candida tropicalis [18]) was 1.56 µg/mL (≈ 3.61 µM). For the same molecule, the MFC (Candida tropicalis [19]) was 6.25 µg/mL (≈ 14.5 µM), the MIC (Candida tropicalis [19]) was 0.78 µg/mL (≈ 1.8 µM) and the MFC (Yarrowia deformans [20]) was 1.56 µg/mL (≈ 3.61 µM). It also gave an MIC (Yarrowia deformans [20]) of 0.78 µg/mL (≈ 1.8 µM), an MFC (Torula [21]) of 12.5 µg/mL (≈ 28.9 µM) and an MIC (Torula [21]) of 12.5 µg/mL (≈ 28.9 µM). The LD50 [22] was 423 mg/kg, the LD50 [23] was 316 mg/kg and the Activity (Mus musculus [24]) was “Non-toxic”. It also gave an Activity (Mus musculus [25]) of 22.5 g, an Activity (Mus musculus [26]) of 24.1 g and an Activity (Mus musculus [27]) of 24.7 g. It also gave an Activity (Candida albicans [28]) of 59.9%, an Activity (Candida albicans [29]) of 95.34% and an Activity (Candida albicans [30]) of 76.7%. It also gave an Activity (Candida albicans [31]) of 75% and an Activity (Candida albicans [32]) of 70.27%.
